Structures can show the parent of a compound that is named as a salt.

This note sets out measurements from PMC5733478, “A Non-imaging High Throughput Approach to Chemical Library Screening at the Unmodified Adenosine-A3 Receptor in Living Cells” (Frontiers in Pharmacology, 2017).

One experiment addresses T1, human A3AR (Homo sapiens, UniProt P0DMS8).
T1 construct: expressed in transfected cells
T1 sequence (P0DMS8 1-318): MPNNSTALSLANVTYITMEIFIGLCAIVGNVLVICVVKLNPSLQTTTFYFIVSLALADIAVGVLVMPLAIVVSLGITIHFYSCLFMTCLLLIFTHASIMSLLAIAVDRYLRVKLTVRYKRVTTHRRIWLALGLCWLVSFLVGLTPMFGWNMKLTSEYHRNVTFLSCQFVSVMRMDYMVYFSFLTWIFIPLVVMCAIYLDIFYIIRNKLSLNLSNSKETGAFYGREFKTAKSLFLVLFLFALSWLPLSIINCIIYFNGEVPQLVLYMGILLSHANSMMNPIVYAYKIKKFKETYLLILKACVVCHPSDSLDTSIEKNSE
The experiment in a line: LOPAC library primary screen: single concentration (10 μM) inhibition of 25 nM CA200645 binding, PHERAstar FS.
Settings: not given
Take `CCOC(=O)[N-]c1cn(N2CCOCC2)n[o+]1` [Molsidomine]: the “% 25 nM CA200645 binding” value is listed as 91.8 ± 17.4%.
The same measure, in the same setting: in the case of `O=c1c(O)c(-c2ccc(O)cc2O)oc2cc(O)cc(O)c12` [Morin] it was 72.1 ± 9.6%; in that of `COc1nc(C)nc(Cl)c1NC1=NCCN1.Cl` [Moxonidine hydrochloride], 99.1 ± 3.2%; in that of `Br.NCc1cc(O)no1` [Muscimol hydrobromide], 107.5 ± 2.4%.
Still for that read-out and setting: in the case of `O=c1c(O)c(-c2cc(O)c(O)c(O)c2)oc2cc(O)cc(O)c12` [Myricetin] it was 62.7 ± 9.0%.
Same read-out and setting: the figure for `CCNc1nc2c(ncn2[C@H]2C[C@H](O)[C@@H](CO)O2)c(=O)[nH]1` [N2-Ethyl-2'-deoxyguanosine] is 108.7 ± 6.3%; for `Nc1ccc(CCNc2ncnc3c2ncn3[C@@H]2O[C@H](CO)[C@@H](O)[C@H]2O)cc1` [N6-2-(4-Aminophenyl)ethyladenosine] it is 41.0 ± 7.1%; for `OC[C@H]1O[C@@H](n2cnc3c(NC4CCCCC4)ncnc32)[C@H](O)[C@@H]1O` [N6-Cyclohexyladenosine] it is 92.9 ± 12.9%.
As for `OC[C@H]1O[C@@H](n2cnc3c(NC4CCCC4)ncnc32)[C@H](O)[C@@H]1O` [N6-Cyclopentyladenosine], the “% 25 nM CA200645 binding” value amounted to 69.6 ± 6.1%.
The same measure, in the same setting: the figure for `CNc1ncnc2c1ncn2[C@@H]1O[C@H](CO)[C@@H](O)[C@H]1O` [N6-Methyladenosine] is 61.1 ± 11.7%.
On the same count and under the same terms, in the case of `CN(C)C(=O)N=NC(=O)N(C)C` [N,N,N',N'-Tetramethylazodicarboxamide] it was 95.9 ± 2.2%.
In the case of `NCC(=O)NCCC(c1ccccc1)c1ccccc1` [N-(3,3-Diphenylpropyl)glycinamide], the “% 25 nM CA200645 binding” value amounted to 98.7 ± 7.8%.
Still for that read-out and setting: in the case of `Nc1ccc(N2C(=O)c3ccccc3C2=O)c(Cl)c1` [N-(4-Amino-2-chlorophenyl)phthalimide] it was 91.1 ± 7.1%.
Same read-out and setting: the figure for `CC(=O)NCCc1c[nH]c2ccc(O)cc12` [N-Acetyl-5-hydroxytryptamine] is 100.5 ± 7.6%; for `CC(=O)N[C@@H](CS)C(=O)O` [N-Acetyl-L-Cysteine] it is 100.3 ± 0.2%.
On to `CCN(CC)CCNC(=O)c1ccc(NC(C)=O)cc1.Cl` [N-Acetylprocainamide hydrochloride], for which the “% 25 nM CA200645 binding” value is recorded as 86.4 ± 17.7%.
Still for that read-out and setting: in the case of `CC(=O)NCCc1c[nH]c2ccccc12` [N-Acetyltryptamine] it was 99.0 ± 14.1%; in that of `CC(=O)NBr` [N-Bromoacetamide], 97.9 ± 5.0%.
On the same count and under the same terms, the figure for `CCN1C(=O)C=CC1=O` [N-Ethylmaleimide] is 99.8 ± 13.3%.
Still for that read-out and setting: the figure for `CN1C[C@H](O)[C@@H](O)[C@H](O)[C@H]1CO` [N-Methyl-1-deoxynojirimycin] is 100.7 ± 20.9%; for `CN[C@H](CC(=O)O)C(=O)O` [N-Methyl-D-aspartic acid] it is 109.5 ± 4.3%; for `CNC(=O)c1cc2c(cn1)[nH]c1ccccc12` [N-Methyl-beta-carboline-3-carboxamide] it is 84.9 ± 8.4%.
For the molecule `CNCCc1ccc(O)c(O)c1.Cl` [N-Methyldopamine hydrochloride], the “% 25 nM CA200645 binding” value is given as 96.1 ± 15.9%.
On the same count and under the same terms, in the case of `CNCCc1cnc(CCC(c2ccccc2)c2ccccc2)[nH]1.O=C(O)C(=O)O.O=C(O)C(=O)O` [N-Methylhistaprodifen dioxalate salt] it was 99.4 ± 7.3%.
Same read-out and setting: the figure for `CCCCCCCC/C=C\CCCCCCCC(=O)NCCc1ccc(O)c(O)c1` [N-Oleoyldopamine] is 53.5 ± 8.3%.
Same read-out and setting: the figure for `CCCCCCCC/C=C\CCCCCCCC(=O)NCCO` [N-Oleoylethanolamine] is 98.2 ± 10.8%; for `O=C(O)c1ccccc1Nc1ccccc1` [N-Phenylanthranilic acid] it is 95.2 ± 6.4%; for `O=C(O)CCC(=O)N1CCC[C@H]1C(=O)O` [N-Succinyl-L-proline] it is 81.8 ± 11.2%.
Take `NC(=O)C1=CN([C@@H]2O[C@H](COP(=O)([O-])OP(=O)([O-])OC[C@H]3O[C@@H](n4cnc5c(N)ncnc54)[C@H](OP(=O)([O-])[O-])[C@@H]3O)[C@@H](O)[C@H]2O)C=CC1.[Na+].[Na+].[Na+].[Na+]` [NADPH tetrasodium]: the “% 25 nM CA200645 binding” value was 112.0 ± 13.1%.
Regarding `Br.COc1ccccc1N1CCN(CCCCN2C(=O)c3ccccc3C2=O)CC1` [NAN-190 hydrobromide], the “% 25 nM CA200645 binding” value is given as 91.1 ± 29.0%.
In the case of `CCCN(CC1CC1)c1nc(C)nc(Nc2c(Cl)cc(Cl)cc2Cl)c1Cl` [NBI 27914], the “% 25 nM CA200645 binding” value turned out to be 89.7 ± 7.0%.
Still for that read-out and setting: in the case of `NS(=O)(=O)c1cccc2c1c([N+](=O)[O-])cc1nc([O-])c([O-])nc12.[Na+].[Na+]` [NBQX disodium] it was 94.5 ± 3.8%; in that of `O=C(Nc1cccc(C(=O)Nc2ccc(S(=O)(=O)O)c3cc(S(=O)(=O)O)cc(S(=O)(=O)O)c23)c1)Nc1cccc(C(=O)Nc2ccc(S(=O)(=O)O)c3cc(S(=O)(=O)O)cc(S(=O)(=O)O)c23)c1` [NF 023], 83.8 ± 25.8%.
`CC(C)[C@H]1c2ccc(F)cc2CC[C@@]1(CCN(C)CCCc1nc2ccccc2[nH]1)OC(=O)C1CC1` [NNC 55-0396]: the “% 25 nM CA200645 binding” value is reported as 109.8 ± 31.5%.
On the same count and under the same terms, in the case of `Cl.c1ccc2c(c1)CCC[C@H]2Nc1nc2ccccc2[nH]1` [NS8593 hydrochloride] it was 91.2 ± 11.5%; in that of `O=c1onc2n1-c1cc(Br)ccc1OC2` [NS 2028], 100.2 ± 8.6%.
On the same count and under the same terms, in the case of `O=c1[nH]c2cc(C(F)(F)F)ccc2n1-c1cc(C(F)(F)F)ccc1O` [NS-1619] it was 94.9 ± 11.8%.
On the same count and under the same terms, in the case of `O=C1C(SCCO)=C(SCCO)C(=O)c2ccccc21` [NSC 95397] it was 96.3 ± 15.0%; in that of `Nc1nc(OCC2CCCCC2)c2[nH]cnc2n1` [NU2058], 53.9 ± 7.1%; in that of `Nc1nc(N)c(N=O)c(OCC2CCCCC2)n1` [NU6027], 80.6 ± 9.9%.
As to `CN(C)C(N)=NCCC[C@H](N)C(=O)O.Cl` [N^G,N^G-Dimethylarginine hydrochloride], the “% 25 nM CA200645 binding” value was 101.2 ± 10.7%.
The same measure, in the same setting: in the case of `COc1ccccc1N1CCN(CC(O)COc2cccc3ccccc23)CC1.Cl.Cl` (centres unmarked) [Naftopidil dihydrochloride] it was 98.6 ± 14.2%; in that of `CCn1cc(C(=O)[O-])c(=O)c2ccc(C)nc21.[Na+]` [Nalidixic acid sodium], 106.1 ± 13.7%.
Same read-out and setting: in the case of `C=CCN1CC[C@]23c4c5ccc(O)c4O[C@H]2C(=O)CC[C@@]3(O)[C@H]1C5` [Naloxone hydrochloride] it was 114.3 ± 14.2%.

Staying with this experiment, now noted: % of control wells (1% DMSO and 25 nM CA200645); compounds at 10 µM; whole live cells expressing the A3AR; mean ± SD, three experiments in duplicate.
With `Clc1ccc2c(c1)N=C(N1CCNCC1)c1ccccc1N2` [N-Desmethylclozapine], the “% 25 nM CA200645 binding” value was 98.4 ± 14.7%.

Still in this experiment, the particulars now being: compounds tested at 10 µM; % of control wells (1% DMSO and 25 nM CA200645); whole live cells expressing the A3AR; mean ± SD, three experiments in duplicate.
Consider `[H]/N=C(/NC)NCCC[C@H](N)C(=O)O` [NG-Monomethyl-L-arginine acetate], for which the “% 25 nM CA200645 binding” value is on record as 112.2 ± 7.1%.
Same read-out and setting: in the case of `O=C1CC[C@@]2(O)[C@H]3Cc4ccc(O)c5c4[C@@]2(CCN3CC2CC2)[C@H]1O5` [Naltrexone hydrochloride] it was 102.6 ± 6.5%.
